Data on 19 compounds can be found in patent US10501473B2, “Fused heterocyclic ring compounds and method of treating retinal disease using same” (THE INDUSTRY & ACADEMIC COOPERATION IN CHUNGNAM NATIONAL …, priority 2014, dated 2019).

Test [1] concerns the target RIPK1 (receptor-interacting serine/threonine-protein kinase 1) (Homo sapiens (Human), UniProt Q13546). Briefly: RIPK1 inhibitory activity, autophosphorylation of immuno-precipitated RIPK1 with [32P]γ-ATP. It is filed as biochemical. To be noted: for inhibition at 100 µM: Table 2, 100 μM; for activity at 100 µM: compound 100 μM, remaining RIPK1 phosphorylation. As for the experimental part: The following experiment was performed to evaluate RIPK1 (receptor-interacting serine/threonine-protein kinase 1) inhibitory activity of the compounds of examples of the invention.
RIPK1 enzyme immuno-precipitated in HEK293 (Human Embryonic Kidney 293) cell lysate was used as kinase. The experiment was performed according to the method described in Cell. 12; 137(6):1112-23(2009). RIPK1 protein was over-expressed in HEK293 cell line, to which lysis buffer (50 mM Tris-Cl [pH 8.0], 150 mM NaCl, 1 mM EDTA, 1% NP-40, 0.4 mM phenylmethylsulfonyl fluoride (PMSF)) was added for cell lysis. Centrifugation was performed at 13,000 rpm for 10 minutes to separate the supernatant. RIPK1 monoclonal antibody (610459, BD Bioscience) and A/G agarose beads (sc-2003, Santa Cruz Biotechnology) were added thereto, followed by immuno-precipitation in a 4° C. rotator for 12 hours.
The immune complex was washed with lysis buffer twice and then washed with kinase assay buffer (20 mM HEPES [pH7.6], 2 mM DTT, 1 mM NaF, 1 mM Na3Vo4, 20 mM β-glycerophosphate, 20 mM PNPP, 20 mM MgCl2, 20 mM MnCl2, 1 mM Benzamidie, and 1 mM EDTA) lastly. Kinase assay buffer and the compound were added to the RIPK1 immuno-precipitate, followed by reaction in a 24° C. constant-temperature water bath for 15 minutes. Additional reaction was induced for 30 minutes at 30° C. after 100 μM of ATP and 10 μCi[^32P] γ-ATP were added thereto. The reaction mixture was washed with kinase assay buffer once, to which protein loading buffer was added, followed by heating at 100° C. for 3 minutes. The reaction mixture was then loaded on 8% SDS-PAGE gel. Radioactive image of the phosphorylated RIPK1 was detected with FLA-7000 (GE healthcare). The image Quant TL program was used for the quantification.

Test [2] concerns RGC-5 (rat ganglion cell). Briefly: Retinal nerve protection under oxygen-glucose deprivation (OGD), LDH assay. It is filed as cell-based. As to conditions: RGC-5, OGD 15 hours, compound 20 μM, DMSO control = 100%. As for the experimental part: The following experiment was performed to evaluate the protective effect of the compounds of examples of the invention on the retinal nerve under oxygen-glucose deprivation condition.
The retinal ganglion cell line RGC-5 (rat ganglion cell) was cultured in DMEM (Dulbecco's modified Eagle's medium) supplemented with 10% FBS (fetal bovine serum) and 1% penicillin/streptomycin. The cells were distributed in a 96-well plate at the density of 8×10^3 cells/well, followed by culture in a 37° C., CO2 incubator for 12 hours. The cells were washed with PBS once and the medium was replaced with glucose free DMEM. The cells were treated with either DMSO (0.1%) alone (control) or with the compounds of examples (20 μM) shown in Table 3, followed by culture in an anaerobic incubator (10% H2, 5% CO2, 85% N2, 37° C., chamber (ThermoForma, USA)) for 15 hours to induce cell death.
The level of cell death was measured by LDH (lactate dehydrogenase, Roche) assay. The LDH assay is a method for measuring the activity of LDH released from the damaged cells into the culture medium. NAD^+ was reduced to NADH and H^+ by LDH, and the bond of tetrazolium salt INT ring was cleaved by diaphorase to form formazan. Absorbance of the formazan was measured at 490 nm by using Victor 3 (PerkinElmer). The absorbance reflects the amount of dead cells.
The level of the control LDH under oxygen-glucose deprivation condition was regarded as 100%, and the level of LDH in the cell group cultured in normal medium (10% FBS, DMEM) for the same time was regarded as 0%. Based on that, the levels of LDH of the cell groups treated with the compounds of the invention under oxygen-glucose deprivation condition were converted into the relative ratio of cell death. The compounds of examples of the invention were treated to wells, each compound for three wells, and then each experiment was performed in triplicate.

For test [3], the system named is RGC-5 (rat ganglion cell-5). Briefly: Retinal neuron protection under necroptosis inducing (TCZ; TNFα+cycloheximide+zVAD) condition, LDH assay. It is filed as cell-based. As to conditions: RGC-5, TCZ 15 hours, compound 20 μM, DMSO control = 100%. As for the experimental part: The following experiment was performed to evaluate the retinal neuron protection effect of the compounds of the invention under necroptosis inducing condition.
The retinal ganglion cell line RGC-5 (rat ganglion cell-5) was cultured in DMEM (Dulbecco's modified Eagle's medium) supplemented with 10% FBS (fetal bovine serum) and 1% penicillin/streptomycin. The cells were distributed in a 96-well plate at the density of 8×10^3 cells/well, followed by culture in a 37° C., CO2 incubator for 12 hours. The medium supplemented with TNFα (10 ng/ml), cycloheximide (10 μg/ml), and zVAD (10 μM) (TCZ) was treated with DMSO (0.1%) alone (control) or with the compounds of the invention (20 μM), followed by additional culture in a 37° C., CO2 incubator for 15 hours to induce cell death.
The level of cell death was measured by LDH (lactate dehydrogenase, Roche) assay. The level of the control LDH under TCZ condition was regarded as 100%, and the level of LDH in the cell group cultured in normal medium (10% FBS, DMEM) for the same time was used for the measurement of the relative rate of cell death. The compounds of examples of the invention were treated to wells, each compound for three wells, and then each experiment was performed in triplicate.

Molecules are shown by their SMILES. A value given as a limit tells only on which side of the number the result lay.

Chain of RIPK1 (receptor-interacting serine/threonine-protein kinase 1) (Q13546 whole entry, species assumed): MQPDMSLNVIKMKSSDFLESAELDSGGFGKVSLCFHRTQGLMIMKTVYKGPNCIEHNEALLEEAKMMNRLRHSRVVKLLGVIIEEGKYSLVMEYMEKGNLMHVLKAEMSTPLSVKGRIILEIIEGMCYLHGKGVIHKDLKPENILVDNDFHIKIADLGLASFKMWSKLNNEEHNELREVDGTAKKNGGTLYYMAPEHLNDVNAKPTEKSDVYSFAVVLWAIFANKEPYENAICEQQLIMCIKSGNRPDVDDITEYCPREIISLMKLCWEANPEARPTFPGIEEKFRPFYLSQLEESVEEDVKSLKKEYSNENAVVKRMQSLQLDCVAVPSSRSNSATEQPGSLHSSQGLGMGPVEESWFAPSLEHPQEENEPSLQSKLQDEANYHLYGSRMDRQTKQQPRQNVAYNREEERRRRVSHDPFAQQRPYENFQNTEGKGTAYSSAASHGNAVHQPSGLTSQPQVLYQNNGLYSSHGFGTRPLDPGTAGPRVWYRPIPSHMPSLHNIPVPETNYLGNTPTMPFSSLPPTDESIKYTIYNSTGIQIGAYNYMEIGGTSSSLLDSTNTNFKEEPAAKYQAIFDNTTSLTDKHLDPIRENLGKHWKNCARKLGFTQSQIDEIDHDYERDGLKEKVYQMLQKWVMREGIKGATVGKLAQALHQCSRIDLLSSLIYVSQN

As to `Cn1c(C(=O)N2CCOCC2)cc2ccccc21` [Example 25, (1-methyl-1H-indole-2-yl)(morpholino)methanone], in test [1], the inhibition – broadly, the relative decrease from the control value, in per cent – at 100 µM was at least 50% and the activity at 100 µM is 43%. Moreover, the “Death of retinal nerve cell (%)” value in test [2] came out at 37.0 ± 1.2%. The “Death of retinal nerve cell (%)” value in test [3] came out at 64.8 ± 11.2%.
In the case of `O=C(c1nc2ccccc2[nH]1)N1CCOCC1` [Example 23, (1H-benzo[d]imidazole-2-yl)(morpholino)methanone], the activity at 100 µM in test [1] was found to be 69 ± 24.5%. Further, the results for the “Death of retinal nerve cell (%)” value in test [2] and in test [3] were 45.6 ± 3.6% and 69.2 ± 4.2%, respectively.
With `O=C(c1cc2c(-c3ccc(F)cc3)cccc2s1)N1CCCCC1` [Example 47, (4-(4-fluorophenyl)benzo[b]thiophene-2-yl) (piperidine-1-yl)methanone], the activity at 100 µM in test [1] turned out to be 20 ± 14.1%. Further, the entries for the “Death of retinal nerve cell (%)” value in test [2] and in test [3] were 59.1 ± 1.6% and 89.1 ± 1.2%, respectively.
The matching figures for `Nc1ccc2sc(C(=O)N3CCOCC3)cc2c1` [Example 28, (5-aminobenzo[b]thiophene-2-yl)(morpholino)methanone]: 73 ± 38.2%, 60.0 ± 8.2% and 84.3 ± 1.7%.
The matching figures for `COc1ccc2oc(C(=O)N3CCOCC3)cc2c1` [Example 26, (5-methoxybenzofuran-2-yl)(morpholino)methanone]: 81.4 ± 29.3%, 48.6 ± 6.5% and 75.9 ± 15.1%.
Compound `COc1ccc2cc(C(=O)N3CCOCC3)sc2c1` [Example 19, (6-methoxybenzo[b]thiophene-2-yl)(morpholino)methanone] yielded an activity at 100 µM in test [1] of 81 ± 26.9%. Moreover, the “Death of retinal nerve cell (%)” value is on record as 70.9 ± 9.7% in test [2] and 71.6 ± 9.1% in test [3].
The matching figures for `O=C(c1cc2cc(Br)ccc2o1)N1CCOCC1` [Example 16, (5-bromobenzofuran-2-yl)(morpholino)methanone]: 88 ± 24.7%, 19.3 ± 1.4% and 59.4 ± 11.3%.
The matching figures for `Cc1ccc2[nH]c(C(=O)N3CCOCC3)nc2c1` [Example 13, (5-methyl-1H-benzo[d]imidazole-2-yl)(morpholino)methanone]: 83.4 ± 16.1%, 69.6 ± 2.0% and 71.2 ± 7.0%.
The matching figures for `O=C(c1nc2cc(Br)ccc2[nH]1)N1CCOCC1` [Example 14, (5-bromo-1H-benzo[d]imidazole-2-yl)(morpholino)methanone]: 62 ± 6.2%, 82.1 ± 11.2% and 81.1 ± 15.2%.
The compound `Cl.O=C(c1cc2c(-c3ccc(F)cc3)cccc2s1)N1CCNCC1` [Example 38, (4-(4-fluorophenyl)benzo[b]thiophene-2-yl)(piperazine-1-yl)methanone hydrochloride] registered an activity at 100 µM in test [1] of 62 ± 12%. The “Death of retinal nerve cell (%)” value came out at 59.9 ± 0.2% in test [2] and 72.4 ± 7.5% in test [3].
The matching figures for `O=C(c1cc2ccccc2o1)N1CCOCC1` [Example 15, benzofuran-2-yl(morpholino)methanone]: 85.6 ± 26.7%, 42.7 ± 2.0% and 72.6 ± 6.8%.
The matching figures for `O=C(c1cc2c(-c3ccc(F)cc3)cnc(Cl)c2s1)N1CCOCC1` [Example 5, (7-chloro-4-(4-fluorophenyl)thieno[2,3-c]pyridine-2-yl)(morpholino)methanone]: 85.1 ± 24.7%, 62.1 ± 3.7% and 57.6 ± 19.2%.
The matching figures for `Cc1ccc2[nH]c(C(=O)N3CCOCC3)cc2c1` [Example 21, (5-methyl-1H-indole-2-yl)(morpholino)methanone]: 81 ± 17%, 64.7 ± 7.1% and 89.9 ± 19.4%.
The compound `COc1ccc2[nH]c(C(=O)N3CCOCC3)nc2c1` [Example 24, (5-methoxy-1H-benzo[d]imidazole-2-yl)(morpholino)methanone] registered an activity at 100 µM in test [1] of 52 ± 17.1%. In addition, the figures for the “Death of retinal nerve cell (%)” value in test [2] and in test [3] were 76.4 ± 13.4% and 66.6 ± 9.9%, respectively.
On to `COc1ccc2[nH]c(C(=O)N3CCOCC3)cc2c1` [Example 22, (5-methoxy-1H-indole-2-yl)(morpholino)methanone], for which, in test [1], the inhibition at 100 µM is at least 50% and the activity at 100 µM came out at 43.5 ± 10.6%. Further, the “Death of retinal nerve cell (%)” value in test [2] amounted to 78.6 ± 13.8%. In addition, the “Death of retinal nerve cell (%)” value in test [3] came out at 69.5 ± 7.4%.
Regarding `Cc1ccc2cc(C(=O)N3CCOCC3)sc2c1C` [Example 18, (6,7-dimethylbenzo[b]thiophene-2-yl)(morpholino)methanone], the activity at 100 µM in test [1] turned out to be 76.5 ± 12%. The “Death of retinal nerve cell (%)” value in test [2] is on record as 37.0 ± 1.7%; in test [3] it was 74.6 ± 8.2%.
For `Fc1ccc(-c2cccc3sc(CN4CCOCC4)cc23)cc1` [Example 7, 4-((4-(4-fluorophenyl)benzo[b]thiophene-2-yl)methyl)morpholine], the activity at 100 µM in test [1] came to 87.1 ± 17.7%. In addition, the “Death of retinal nerve cell (%)” value in test [2] amounted to 90.0 ± 3.3%; in test [3], 63.2 ± 3.9%.
The matching figures for `Cc1ccc2cc(C(=O)N3CCOCC3)oc2c1` [Example 27, (6-methylbenzofuran-2-yl)(morpholino)methanone]: 86 ± 17%, 53.7 ± 9.1% and 86.1 ± 1.3%.
The matching figures for `O=C(c1cc2cccc(-c3ccc(F)cc3)c2s1)N1CCOCC1` [Example 65, (7-(4-fluorophenyl)benzo[b]thiophene-2-yl)(morpholino)methanone]: 67%, 79.6 ± 5.5% and 77.8 ± 9.6%.
